Assay results as given in patent US12673945B2, “3-((8-((1H-pyrazol-4-yl)amino)imidazo[1,2-a]pyridin-3-yl)ethinyl)-n-phenylbenzamide derivative, method for preparing same, and pharmaceutical composition containing same as active ingredient for prevention or treatment of cancer” (DAEGU-GYEONGBUK MEDICAL INNOVATION FOUNDATION, priority 2020, dated 2026).

Tests used:
Assay in all cases: scanMAX Kinase panel (DiscoverX)
Format in all cases: binding
BMX = molecular target: T1, BMX (Homo sapiens, UniProt P51813); conditions: read-out: % Cont @ 1 uM
T1 construct: purchased DiscoverX scanMAX Kinase panel
Method: (§1) Among the example compounds of the present invention, the enzyme (kinase) selectivity of the selected compounds of Examples 1 and 4 was measured by requesting DiscoverX. At this time, the experiment was performed using a panel for scanMAX™ Kinase. The concentration of the drug treated to the enzyme was 1 μM in DMSO, and the percentage control (% control) was determined by the method shown in Equation 1 below. (Example Compound−Positive Control)/(Negative Control−Positive control)×100 [Equation 1]

PFTK1 = molecular target: T2, PFTK1 (Homo sapiens, UniProt O94921)
T2 construct: purchased DiscoverX scanMAX Kinase panel
Method: as §1

VEGFR2 = molecular target: T3, VEGFR2 (Homo sapiens, UniProt P35968); conditions: read-out: % Cont @ 1 uM
T3 construct: purchased DiscoverX scanMAX Kinase panel
Method: as §1

FRK = molecular target: T4, FRK (Homo sapiens, UniProt P42685); conditions: read-out: % Cont @ 1 uM
T4 construct: purchased DiscoverX scanMAX Kinase panel
T4 sequence (P42685 whole entry): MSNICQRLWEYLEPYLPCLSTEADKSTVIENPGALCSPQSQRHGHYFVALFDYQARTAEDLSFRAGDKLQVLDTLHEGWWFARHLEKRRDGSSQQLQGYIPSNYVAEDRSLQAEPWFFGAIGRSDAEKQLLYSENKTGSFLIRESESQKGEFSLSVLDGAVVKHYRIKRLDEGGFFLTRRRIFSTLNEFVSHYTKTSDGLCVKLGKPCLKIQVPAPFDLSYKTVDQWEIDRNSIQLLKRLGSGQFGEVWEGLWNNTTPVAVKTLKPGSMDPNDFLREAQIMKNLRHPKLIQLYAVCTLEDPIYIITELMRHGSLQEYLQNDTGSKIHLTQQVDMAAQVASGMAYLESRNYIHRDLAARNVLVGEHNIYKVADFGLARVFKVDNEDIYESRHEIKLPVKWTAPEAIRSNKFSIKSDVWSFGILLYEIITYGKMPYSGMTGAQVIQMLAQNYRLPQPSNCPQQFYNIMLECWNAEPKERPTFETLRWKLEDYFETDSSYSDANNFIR
Method: as §1

STK33 = molecular target: T5, STK33 (Homo sapiens, UniProt Q9BYT3); conditions: read-out: % Cont @ 1 uM
T5 construct: purchased DiscoverX scanMAX Kinase panel
Method: as §1

TEC = molecular target: T6, TEC (Homo sapiens, UniProt P42680); conditions: read-out: % Cont @ 1 uM
T6 construct: purchased DiscoverX scanMAX Kinase panel
Method: as §1

JNK2 = molecular target: T7, JNK2 (Homo sapiens, UniProt P45984)
T7 construct: purchased DiscoverX scanMAX Kinase panel
Method: as §1

SRMS = molecular target: T8, SRMS (Homo sapiens, UniProt Q9H3Y6); conditions: read-out: % Cont @ 1 uM
T8 construct: purchased DiscoverX scanMAX Kinase panel
T8 sequence (Q9H3Y6 whole entry): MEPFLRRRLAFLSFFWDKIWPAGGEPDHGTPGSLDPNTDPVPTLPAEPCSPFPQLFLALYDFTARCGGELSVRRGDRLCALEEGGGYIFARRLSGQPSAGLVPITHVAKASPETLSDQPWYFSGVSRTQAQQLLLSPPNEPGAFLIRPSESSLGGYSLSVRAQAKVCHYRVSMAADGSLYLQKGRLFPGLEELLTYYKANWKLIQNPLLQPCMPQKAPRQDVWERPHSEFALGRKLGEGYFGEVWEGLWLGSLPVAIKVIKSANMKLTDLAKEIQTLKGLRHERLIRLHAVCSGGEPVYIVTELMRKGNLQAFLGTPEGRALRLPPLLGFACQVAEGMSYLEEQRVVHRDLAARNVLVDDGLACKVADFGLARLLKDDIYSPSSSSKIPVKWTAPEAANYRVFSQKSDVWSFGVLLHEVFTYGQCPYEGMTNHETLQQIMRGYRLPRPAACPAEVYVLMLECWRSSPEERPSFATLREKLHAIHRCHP
Method: as §1

ERK8 = molecular target: T9, ERK8 (Homo sapiens, UniProt Q8TD08); conditions: read-out: % Cont @ 1 uM
T9 construct: purchased DiscoverX scanMAX Kinase panel
Method: as §1

TIE2 = molecular target: T10, TIE2 (Homo sapiens, UniProt Q02763); conditions: read-out: % Cont @ 1 uM
T10 construct: purchased DiscoverX scanMAX Kinase panel
Method: as §1

BTK = molecular target: T11, BTK (Homo sapiens, UniProt Q06187)
T11 construct: purchased DiscoverX scanMAX Kinase panel
Method: as §1

MAP3K2 = molecular target: T12, MAP3K2 (Homo sapiens, UniProt Q9Y2U5); conditions: read-out: % Cont @ 1 uM
T12 construct: purchased DiscoverX scanMAX Kinase panel
Method: as §1

TRKA = molecular target: T13, TRKA (Homo sapiens, UniProt P04629); conditions: read-out: % Cont @ 1 uM
T13 construct: purchased DiscoverX scanMAX Kinase panel
Method: as §1

[1] = molecular target: T14, ABL1(Y253F)-phosphorylated (Homo sapiens, UniProt P00519, Y253F); conditions: read-out: % Cont @ 1 uM
T14 construct: purchased DiscoverX scanMAX Kinase panel
Method: as §1

CDC2L1 = molecular target: T15, CDC2L1 (Homo sapiens, UniProt P21127); conditions: read-out: % Cont @ 1 uM
T15 construct: purchased DiscoverX scanMAX Kinase panel
Method: as §1

LYN = molecular target: T16, LYN (Homo sapiens, UniProt P07948); conditions: read-out: % Cont @ 1 uM
T16 construct: purchased DiscoverX scanMAX Kinase panel
Method: as §1

TNK2 = molecular target: T17, TNK2 (Homo sapiens, UniProt Q07912); conditions: read-out: % Cont @ 1 uM
T17 construct: purchased DiscoverX scanMAX Kinase panel
Method: as §1

p38-gamma = molecular target: T18, p38-gamma (Homo sapiens, UniProt P53778); conditions: read-out: % Cont @ 1 uM
T18 construct: purchased DiscoverX scanMAX Kinase panel
Method: as §1

[2] = molecular target: T19, ABL1(Q252H)-phosphorylated (Homo sapiens, UniProt P00519, Q252H); conditions: read-out: % Cont @ 1 uM
T19 construct: purchased DiscoverX
Method: as §1

MUSK = molecular target: T20, MUSK (Homo sapiens, UniProt O15146); conditions: read-out: % Cont @ 1 uM
T20 construct: purchased DiscoverX scanMAX Kinase panel
Method: as §1

MAP3K3 = molecular target: T21, MAP3K3 (Homo sapiens, UniProt Q99759); conditions: read-out: % Cont @ 1 uM
T21 construct: purchased DiscoverX scanMAX Kinase panel
T21 sequence (Q99759 whole entry): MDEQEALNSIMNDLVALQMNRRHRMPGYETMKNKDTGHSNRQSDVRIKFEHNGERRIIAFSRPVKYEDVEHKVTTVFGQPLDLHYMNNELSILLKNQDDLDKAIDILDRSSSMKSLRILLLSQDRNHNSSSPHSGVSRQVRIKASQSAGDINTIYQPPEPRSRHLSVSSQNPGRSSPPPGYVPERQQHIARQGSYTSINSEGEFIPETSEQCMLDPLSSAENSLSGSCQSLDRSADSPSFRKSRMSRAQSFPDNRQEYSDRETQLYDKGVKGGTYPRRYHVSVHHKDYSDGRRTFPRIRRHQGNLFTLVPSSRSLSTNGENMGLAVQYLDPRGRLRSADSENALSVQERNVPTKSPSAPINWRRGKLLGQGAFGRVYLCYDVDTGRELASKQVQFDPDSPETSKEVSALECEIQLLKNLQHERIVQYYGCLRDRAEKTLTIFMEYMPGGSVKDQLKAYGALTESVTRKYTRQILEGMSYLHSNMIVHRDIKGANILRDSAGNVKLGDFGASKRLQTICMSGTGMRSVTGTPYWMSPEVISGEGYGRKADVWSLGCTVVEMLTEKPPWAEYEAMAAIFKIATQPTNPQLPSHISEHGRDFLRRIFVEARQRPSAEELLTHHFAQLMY
Method: as §1

EGFR(L861Q) = molecular target: T22, EGFR(L861Q) (Homo sapiens, UniProt P00533, L861Q)
T22 construct: purchased DiscoverX scanMAX Kinase panel
Method: as §1

EPHB2 = molecular target: T23, EPHB2 (Homo sapiens, UniProt P29323)
T23 construct: purchased DiscoverX scanMAX Kinase panel
Method: as §1

[3] = molecular target: T24, ABL1(F317I)-phosphorylated (Homo sapiens, UniProt P00519, F317I); conditions: read-out: % Cont @ 1 uM
T24 construct: purchased DiscoverX
Method: as §1

TRKB = molecular target: T25, TRKB (Homo sapiens, UniProt Q16620); conditions: read-out: % Cont @ 1 uM
T25 construct: purchased DiscoverX scanMAX Kinase panel
T25 sequence (Q16620 32-822): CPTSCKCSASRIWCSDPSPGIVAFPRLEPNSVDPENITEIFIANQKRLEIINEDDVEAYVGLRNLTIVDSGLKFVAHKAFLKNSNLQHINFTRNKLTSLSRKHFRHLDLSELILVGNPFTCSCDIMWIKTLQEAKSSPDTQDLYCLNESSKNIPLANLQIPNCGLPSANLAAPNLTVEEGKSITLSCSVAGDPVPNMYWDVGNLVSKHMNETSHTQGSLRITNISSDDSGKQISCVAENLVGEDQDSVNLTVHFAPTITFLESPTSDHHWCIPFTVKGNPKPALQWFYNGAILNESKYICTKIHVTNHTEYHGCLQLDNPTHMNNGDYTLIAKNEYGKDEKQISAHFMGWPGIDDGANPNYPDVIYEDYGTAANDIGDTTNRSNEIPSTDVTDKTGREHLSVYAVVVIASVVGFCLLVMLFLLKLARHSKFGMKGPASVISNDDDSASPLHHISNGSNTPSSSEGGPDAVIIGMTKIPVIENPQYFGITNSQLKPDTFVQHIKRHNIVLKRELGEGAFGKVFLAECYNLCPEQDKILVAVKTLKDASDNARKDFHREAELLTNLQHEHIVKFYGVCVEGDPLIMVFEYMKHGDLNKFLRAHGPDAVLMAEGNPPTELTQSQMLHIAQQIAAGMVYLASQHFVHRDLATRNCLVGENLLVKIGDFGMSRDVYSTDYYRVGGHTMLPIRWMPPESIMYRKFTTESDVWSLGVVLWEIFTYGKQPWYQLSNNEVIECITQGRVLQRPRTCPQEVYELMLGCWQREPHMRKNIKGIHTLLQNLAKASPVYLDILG
Method: as §1

BRAF = molecular target: T26, BRAF (Homo sapiens, UniProt P15056); conditions: read-out: % Cont @ 1 uM
T26 construct: purchased DiscoverX scanMAX Kinase panel
Method: as §1

CDK11 = molecular target: T27, CDK11 (Homo sapiens, UniProt Q9BWU1)
T27 construct: purchased DiscoverX scanMAX Kinase panel
T27 sequence (Q9BWU1 whole entry): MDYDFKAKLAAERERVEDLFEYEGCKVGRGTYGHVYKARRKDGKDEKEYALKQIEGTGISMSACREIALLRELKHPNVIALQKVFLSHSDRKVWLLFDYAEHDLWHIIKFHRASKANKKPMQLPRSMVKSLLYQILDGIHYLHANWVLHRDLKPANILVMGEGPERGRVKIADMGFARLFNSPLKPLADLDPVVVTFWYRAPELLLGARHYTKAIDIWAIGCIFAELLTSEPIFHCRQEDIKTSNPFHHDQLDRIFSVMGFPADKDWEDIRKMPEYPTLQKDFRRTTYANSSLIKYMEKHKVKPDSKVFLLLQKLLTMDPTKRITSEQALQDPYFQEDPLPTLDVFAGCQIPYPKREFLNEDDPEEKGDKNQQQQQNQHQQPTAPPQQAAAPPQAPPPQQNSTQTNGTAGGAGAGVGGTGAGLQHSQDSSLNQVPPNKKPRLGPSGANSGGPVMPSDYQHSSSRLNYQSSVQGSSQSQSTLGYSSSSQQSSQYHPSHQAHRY
Method: as §1

AXL = molecular target: T28, AXL (Homo sapiens, UniProt P30530); conditions: read-out: % Cont @ 1 uM
T28 construct: purchased DiscoverX scanMAX Kinase panel
T28 sequence (P30530 26-894): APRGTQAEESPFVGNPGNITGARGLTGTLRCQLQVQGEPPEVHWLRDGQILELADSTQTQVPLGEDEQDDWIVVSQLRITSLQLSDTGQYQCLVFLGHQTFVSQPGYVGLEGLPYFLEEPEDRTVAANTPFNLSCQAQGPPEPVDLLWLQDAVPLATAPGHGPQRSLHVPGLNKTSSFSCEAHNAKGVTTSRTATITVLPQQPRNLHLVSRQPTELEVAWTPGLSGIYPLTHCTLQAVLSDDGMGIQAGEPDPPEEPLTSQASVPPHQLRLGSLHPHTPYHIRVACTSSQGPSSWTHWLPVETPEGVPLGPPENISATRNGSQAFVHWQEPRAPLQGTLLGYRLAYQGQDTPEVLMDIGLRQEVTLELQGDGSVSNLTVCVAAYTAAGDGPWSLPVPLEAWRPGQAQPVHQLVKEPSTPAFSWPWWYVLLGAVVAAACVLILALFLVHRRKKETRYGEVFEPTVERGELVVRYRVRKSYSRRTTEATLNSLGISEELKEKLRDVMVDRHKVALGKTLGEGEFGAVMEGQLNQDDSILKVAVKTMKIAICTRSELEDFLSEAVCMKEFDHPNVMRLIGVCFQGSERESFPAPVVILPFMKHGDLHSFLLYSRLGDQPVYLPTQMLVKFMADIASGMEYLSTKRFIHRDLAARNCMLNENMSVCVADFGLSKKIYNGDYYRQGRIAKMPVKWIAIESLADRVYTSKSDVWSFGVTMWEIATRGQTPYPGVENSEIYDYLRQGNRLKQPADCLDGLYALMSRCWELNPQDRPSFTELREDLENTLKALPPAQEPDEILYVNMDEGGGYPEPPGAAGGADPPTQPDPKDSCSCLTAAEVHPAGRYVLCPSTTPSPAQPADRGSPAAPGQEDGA
Method: as §1

ERBB4 = molecular target: T29, ERBB4 (Homo sapiens, UniProt Q15303); conditions: read-out: % Cont @ 1 uM
T29 construct: purchased DiscoverX scanMAX Kinase panel
T29 sequence (Q15303 26-1308): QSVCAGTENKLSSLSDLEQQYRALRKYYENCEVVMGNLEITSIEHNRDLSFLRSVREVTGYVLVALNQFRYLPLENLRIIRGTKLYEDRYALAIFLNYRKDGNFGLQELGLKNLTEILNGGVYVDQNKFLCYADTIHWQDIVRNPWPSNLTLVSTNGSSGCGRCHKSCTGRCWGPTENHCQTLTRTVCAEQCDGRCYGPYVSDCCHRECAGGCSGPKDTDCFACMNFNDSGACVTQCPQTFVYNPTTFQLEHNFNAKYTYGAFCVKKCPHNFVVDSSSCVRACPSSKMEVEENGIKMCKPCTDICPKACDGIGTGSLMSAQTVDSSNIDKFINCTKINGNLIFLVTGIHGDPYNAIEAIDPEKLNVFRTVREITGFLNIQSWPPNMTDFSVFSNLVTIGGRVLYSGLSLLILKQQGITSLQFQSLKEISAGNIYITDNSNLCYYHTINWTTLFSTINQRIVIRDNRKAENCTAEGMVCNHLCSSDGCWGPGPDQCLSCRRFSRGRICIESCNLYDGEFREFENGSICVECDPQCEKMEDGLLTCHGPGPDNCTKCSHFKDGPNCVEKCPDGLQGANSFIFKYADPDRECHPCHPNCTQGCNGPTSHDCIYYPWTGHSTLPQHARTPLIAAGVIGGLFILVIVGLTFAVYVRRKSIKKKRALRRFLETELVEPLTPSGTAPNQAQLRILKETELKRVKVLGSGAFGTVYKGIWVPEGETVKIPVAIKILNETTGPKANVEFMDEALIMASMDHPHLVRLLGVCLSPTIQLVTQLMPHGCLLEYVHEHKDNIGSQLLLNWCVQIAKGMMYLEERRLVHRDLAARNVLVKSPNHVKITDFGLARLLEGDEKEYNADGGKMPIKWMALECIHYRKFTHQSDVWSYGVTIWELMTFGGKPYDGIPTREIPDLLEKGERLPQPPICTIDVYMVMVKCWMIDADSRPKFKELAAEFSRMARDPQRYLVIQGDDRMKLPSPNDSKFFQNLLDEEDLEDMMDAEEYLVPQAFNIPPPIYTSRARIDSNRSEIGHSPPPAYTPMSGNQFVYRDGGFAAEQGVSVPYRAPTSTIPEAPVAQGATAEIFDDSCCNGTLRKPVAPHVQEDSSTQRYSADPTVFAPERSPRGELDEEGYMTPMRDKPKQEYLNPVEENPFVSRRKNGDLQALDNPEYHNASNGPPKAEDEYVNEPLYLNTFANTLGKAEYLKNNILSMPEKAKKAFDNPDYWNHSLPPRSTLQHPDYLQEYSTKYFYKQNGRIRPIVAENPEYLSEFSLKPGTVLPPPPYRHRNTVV
Method: as §1

SLK = molecular target: T30, SLK (Homo sapiens, UniProt Q9H2G2); conditions: read-out: % Cont @ 1 uM
T30 construct: purchased DiscoverX scanMAX Kinase panel
Method: as §1

PCTK2 = molecular target: T31, PCTK2 (Homo sapiens, UniProt Q00537); conditions: read-out: % Cont @ 1 uM
T31 construct: purchased DiscoverX scanMAX Kinase panel
Method: as §1

RIPK2 = molecular target: T32, RIPK2 (Homo sapiens, UniProt O43353); conditions: read-out: % Cont @ 1 uM
T32 construct: purchased DiscoverX scanMAX Kinase panel
Method: as §1

MKNK1 = molecular target: T33, MKNK1 (Homo sapiens, UniProt Q9BUB5); conditions: read-out: % Cont @ 1 uM
T33 construct: purchased DiscoverX scanMAX Kinase panel
Method: as §1

CDC2L2 = molecular target: T34, CDC2L2 (Homo sapiens, UniProt Q9UQ88); conditions: read-out: % Cont @ 1 uM
T34 construct: purchased DiscoverX scanMAX Kinase panel
Method: as §1

FGFR3(G697C) = molecular target: T35, FGFR3(G697C) (Homo sapiens, UniProt P22607, G697C); conditions: read-out: % Cont @ 1 uM
T35 construct: purchased DiscoverX scanMAX Kinase panel
Method: as §1

TNIK = molecular target: T36, TNIK (Homo sapiens, UniProt Q9UKE5); conditions: read-out: % Cont @ 1 uM
T36 construct: purchased DiscoverX scanMAX Kinase panel
Method: as §1

TAOK2 = molecular target: T37, TAOK2 (Homo sapiens, UniProt Q9UL54); conditions: read-out: % Cont @ 1 uM
T37 construct: purchased DiscoverX scanMAX Kinase panel
Method: as §1

EPHA6 = molecular target: T38, EPHA6 (Homo sapiens, UniProt Q9UF33); conditions: read-out: % Cont @ 1 uM
T38 construct: purchased DiscoverX scanMAX Kinase panel
Method: as §1

p38-alpha = molecular target: T39, p38-alpha (Homo sapiens, UniProt Q16539)
T39 construct: purchased DiscoverX scanMAX Kinase panel
Method: as §1

[4] = molecular target: T40, ABL1(T315I)-nonphosphorylated (Homo sapiens, UniProt P00519, T315I); conditions: read-out: % Cont @ 1 uM
T40 construct: purchased DiscoverX
Method: as §1

## Cc1cn(-c2cc(NC(=O)c3cc(C#Cc4cnc5c(Nc6cnn(C)c6)cccn45)c(C)cc3F)cc(C(F)(F)F)c2)cn1 [Example 4, 2-fluoro-4-methyl-N-(3-(4-methyl-1H-imidazol-1-yl)-5-(trifluoromethyl)phenyl)-5-((8-((1-methyl-1H-pyrazol-4-yl)amino)imidazo[1,2-a]pyridin-3-yl)ethynyl)benzamide]
BMX
  remaining binding at 1 µM: 3.6%
PFTK1
  % Cont @ 1 uM: 94%
VEGFR2
  remaining binding at 1 µM: 36%
FRK
  remaining binding at 1 µM: 26%
STK33
  remaining binding at 1 µM: 76%
TEC
  remaining binding at 1 µM: 46%
JNK2
  % Cont @ 1 uM: 81%
SRMS
  remaining binding at 1 µM: 54%
ERK8
  remaining binding at 1 µM: 90%
TIE2
  remaining binding at 1 µM: 0.7%
BTK
  % Cont @ 1 uM: 38%
MAP3K2
  remaining binding at 1 µM: 87%
TRKA
  remaining binding at 1 µM: 2.6%
[1]
  remaining binding at 1 µM: 5.9%
CDC2L1
  remaining binding at 1 µM: 79%
LYN
  percent of control binding at 1 µM: 4.7%
TNK2
  remaining binding at 1 µM: 91%
p38-gamma
  remaining binding at 1 µM: 88%
[2]
  remaining binding at 1 µM: 14%
MUSK
  remaining binding at 1 µM: 46%
MAP3K3
  remaining binding at 1 µM: 82%
EGFR(L861Q)
  % Cont @ 1 uM: 53%
EPHB2
  % Cont @ 1 uM: 32%
[3]
  remaining binding at 1 µM: 22%
TRKB
  remaining binding at 1 µM: 7.7%
BRAF
  remaining binding at 1 µM: 34%
CDK11
  % Cont @ 1 uM: 55%
AXL
  remaining binding at 1 µM: 1.4%
ERBB4
  remaining binding at 1 µM: 46%
SLK
  remaining binding at 1 µM: 34%
PCTK2
  remaining binding at 1 µM: 85%
RIPK2
  remaining binding at 1 µM: 37%
MKNK1
  remaining binding at 1 µM: 78%
CDC2L2
  remaining binding at 1 µM: 83%
FGFR3(G697C)
  remaining binding at 1 µM: 90%
TNIK
  remaining binding at 1 µM: 25%
TAOK2
  remaining binding at 1 µM: 35%
EPHA6
  remaining binding at 1 µM: 25%
p38-alpha
  % Cont @ 1 uM: 49%
[4]
  remaining binding at 1 µM: 10%

## Cc1cn(-c2cc(NC(=O)c3cc(C#Cc4cnc5c(Nc6cnn(C)c6)cccn45)c(C)cc3F)cc(C(C)(C)C#N)c2)cn1 [Example 1, N-(3-(2-cyanopropane-2-yl)-5-(4-methyl-1H-imidazol-1-yl)phenyl)-2-fluoro-4-methyl-5-((8-((1-methyl-1H-pyrazol-4-yl)amino)imidazo[1,2-a]pyridin-3-yl)ethynyl)benzamide]
BMX
  remaining binding at 1 µM: 6.7%
PFTK1
  % Cont @ 1 uM: 8.3%
VEGFR2
  remaining binding at 1 µM: 6.1%
FRK
  remaining binding at 1 µM: 1.6%
STK33
  remaining binding at 1 µM: 12%
TEC
  remaining binding at 1 µM: 1.3%
JNK2
  % Cont @ 1 uM: 12%
SRMS
  remaining binding at 1 µM: 1.2%
ERK8
  remaining binding at 1 µM: 19%
TIE2
  remaining binding at 1 µM: 0.4%
BTK
  % Cont @ 1 uM: 2.2%
MAP3K2
  remaining binding at 1 µM: 34%
TRKA
  remaining binding at 1 µM: 0.6%
[1]
  remaining binding at 1 µM: 0.15%
CDC2L1
  remaining binding at 1 µM: 27%
LYN
  percent of control binding at 1 µM: 0.5%
TNK2
  remaining binding at 1 µM: 31%
p38-gamma
  remaining binding at 1 µM: 17%
[2]
  remaining binding at 1 µM: 1.3%
MUSK
  remaining binding at 1 µM: 5%
MAP3K3
  remaining binding at 1 µM: 19%
EGFR(L861Q)
  % Cont @ 1 uM: 6.7%
EPHB2
  % Cont @ 1 uM: 6.3%
[3]
  remaining binding at 1 µM: 9.2%
TRKB
  remaining binding at 1 µM: 0.6%
BRAF
  remaining binding at 1 µM: 13%
CDK11
  % Cont @ 1 uM: 14.8%
AXL
  remaining binding at 1 µM: 14.4%
ERBB4
  remaining binding at 1 µM: 18%
SLK
  remaining binding at 1 µM: 1.2%
PCTK2
  remaining binding at 1 µM: 23%
RIPK2
  remaining binding at 1 µM: 3%
MKNK1
  remaining binding at 1 µM: 23%
CDC2L2
  remaining binding at 1 µM: 24%
FGFR3(G697C)
  remaining binding at 1 µM: 7.5%
TNIK
  remaining binding at 1 µM: 7.2%
TAOK2
  remaining binding at 1 µM: 20%
EPHA6
  remaining binding at 1 µM: 16%
p38-alpha
  % Cont @ 1 uM: 0.65%
[4]
  remaining binding at 1 µM: 8.9%
